From patent US20040097408A1, “Compounds regulating cell proliferation and differentiation” (priority 2001, published 2004) come the findings set out here.

The test system of data set [1] is Neu, PKB/Akt and MAP kinase in EpH4-A6 cells. Kind of data set: Western blot of Neu-dependent signaling. Type of data set: cell-based, mouse. To be noted: 3 μM F16, FIG. 12. As for the experimental part:
In parallel to the characterization of the effect of F16 on mitochondria homeostasis the effect of F16 on cell signaling was investigated. Control and Neu-overexpressing EpH4-A6 cells were left untreated or treated with 3 μM F16 for 24 and 48 hr. Whole cell lysates were prepared as described above. Samples were immnoblotted with antibodies against Neu, PKB, MAPK, as well as antibodies that react with the phosphorylated forms of the proteins, as described above. Samples were probed with anti-β-actin as loading control, also as described above.
(A western blot detects proteins with antibodies after separation by electrophoresis.)

The nature of data set [2]: total body weight of mice during treatment. Type of data set: in vivo, mouse. The settings on record: relative to weight at the beginning of the experiment; 20 mg/kg twice a day. An excerpt:
The total weight of the mice was also monitored every other day during the course of the treatment with F16.

In another data set the test system is NF980. Nature of the data set: cell count proliferation assay. It counts as cell-based, mouse. Also on record: key: +: A positive scoring in these Tables represent cells in which a 2-5 and a 10-40 fold reduction in the total number of cells relative to the control untreated cells was observed after 3 and 7 days of culture with F16, respectively. The settings on record: NF980, Neu, breast; F16 3 μM, cells counted after 3 and 7 days. An excerpt: (§1) The following panel of mouse tumor cell lines derived from Neu, Ras and Myc transgenic mice and panel of human cancer cell lines were used: a) Neu-initiated mouse tumor cell lines NF980, NF324-2A, NF324-1B, SMF, NAF, Neu4145, n-Neu, Ras-initiated mouse tumor cell lines SH1,1, AC236, AC711, AC816, ACp53^−#1, ACp53^−4782, AC222, AC99, AC260, ACp53^−#19, ACp53^−#16, AC/Balb6.6, AC/Balb14, AC/Balb12 and Myc-initiated mouse tumor cell lines 16MB9a, 13MA1a; and b) human breast tumor cell lines MDA-MB231, MDA-MB435, MDA-MB436, MDA-MB453, MDA-MB-468, SKBR-3, MCF-7, T47D, ZR75; human prostate cancer cell lines LNCaP, PC-3, DU145 and the human ovarian cancer cell line SKOV-3.
(§2) For each cell line, 10^5 cells were seeded in 4×6 well plates. Next day, F16 was added at 3 μM to the medium of 2 of the plates, while the other two were left untreated (control). Cells were counted 3 days and 7 days after initiation of treatment.
(§3) A positive scoring in these Tables represent cells in which a 2-5 and a 10-40 fold reduction in the total number of cells relative to the control untreated cells was observed after 3 and 7 days of culture with F16, respectively.

The subject of another data set is NF324-2A. Nature of the data set: cell count proliferation assay. Type of data set: cell-based, mouse. Also on record: key: +: A positive scoring in these Tables represent cells in which a 2-5 and a 10-40 fold reduction in the total number of cells relative to the control untreated cells was observed after 3 and 7 days of culture with F16, respectively. The settings on record: Neu, breast, F16 3 μM, cells counted after 3 and 7 days.
Excerpt: as §1, §2, §3

The next data set concerns T47D. Nature of the data set: cell count proliferation assay. Type of data set: cell-based. Also on record: key: +: A positive scoring in these Tables represent cells in which a 2-5 and a 10-40 fold reduction in the total number of cells relative to the control untreated cells was observed after 3 and 7 days of culture with F16, respectively. To be noted: human breast, F16 3 μM, cells counted after 3 and 7 days.
Excerpt: as §1, §2, §3

A further data set deals with MDA-MB-468. Kind of data set: cell count proliferation assay. To be noted: MDA-MB-468, human breast; F16 3 μM, cells counted after 3 and 7 days. Also on record: key: +: A positive scoring in these Tables represent cells in which a 2-5 and a 10-40 fold reduction in the total number of cells relative to the control untreated cells was observed after 3 and 7 days of culture with F16, respectively. It counts as cell-based.
Excerpt: as §1, §2, §3

For the next data set, the system named is SKBR-3. Nature of the data set: cell count proliferation assay. Type of data set: cell-based. Further details: key: +: A positive scoring in these Tables represent cells in which a 2-5 and a 10-40 fold reduction in the total number of cells relative to the control untreated cells was observed after 3 and 7 days of culture with F16, respectively. The settings on record: SKBR-3, human breast; F16 3 μM, cells counted after 3 and 7 days.
Excerpt: as §1, §2, §3

The next data set deals with MDA-MB-436. Kind of data set: cell count proliferation assay. To be noted: MDA-MB-436, human breast; F16 3 μM, cells counted after 3 and 7 days. Also on record: key: +: A positive scoring in these Tables represent cells in which a 2-5 and a 10-40 fold reduction in the total number of cells relative to the control untreated cells was observed after 3 and 7 days of culture with F16, respectively. It counts as cell-based.
Excerpt: as §1, §2, §3

In a further data set the test system is MDA-MB-453. Nature of the data set: cell count proliferation assay. It counts as cell-based. Further details: key: +: A positive scoring in these Tables represent cells in which a 2-5 and a 10-40 fold reduction in the total number of cells relative to the control untreated cells was observed after 3 and 7 days of culture with F16, respectively. To be noted: MDA-MB-453, human breast; F16 3 μM, cells counted after 3 and 7 days.
Excerpt: as §1, §2, §3

A further data set deals with MCF-7. Nature of the data set: cell count proliferation assay. Type of data set: cell-based. Also on record: key: +: A positive scoring in these Tables represent cells in which a 2-5 and a 10-40 fold reduction in the total number of cells relative to the control untreated cells was observed after 3 and 7 days of culture with F16, respectively. To be noted: MCF-7, human breast; F16 3 μM, cells counted after 3 and 7 days.
Excerpt: as §1, §2, §3

A further data set has as its system ZR75. Kind of data set: cell count proliferation assay. Type of data set: cell-based. Further details: key: +: A positive scoring in these Tables represent cells in which a 2-5 and a 10-40 fold reduction in the total number of cells relative to the control untreated cells was observed after 3 and 7 days of culture with F16, respectively. The settings on record: ZR75, human breast; F16 3 μM, cells counted after 3 and 7 days.
Excerpt: as §1, §2, §3

The subject of data set [3] is isolated mouse liver mitochondria. Kind of data set: swelling of isolated mitochondria (permeability transition pore opening). Type of data set: biochemical. The settings on record: 0.5 mg/ml mitochondria.
Experimental: Mitochondria were isolated from liver of Balb/c7 mice by standard differential centrifugation, and resuspended in isolation buffer (0.2 M sucrose, 10 mM Tris-MOPS pH 7.4, 0.1 mM EGTA-Tris, 0.1% delipidated BSA) (Costantini et al. (1995) Toxicology (99) 77-88). Protein concentration was determined by Bradford assay. For swelling determination, changes in side scatter at 545±2.5 nm of a 0.5 mg/ml suspension of mitochondria in experimental buffer (125 mM KCl, 10 mM Tris-MOPS pH 7.4, 1 mM Pi, 5 mM glutamate, 2.5 mM malate, 10 μM EGTA-Tris, pH 7.4) were monitored by using LS-50B spectrofluorimeter. […] All reactions were performed at 25° C. and the instrument was equipped with magnetic stirring.
A further data set deals with mice. Kind of data set: tolerability of intraperitoneal F16 in mice.

Regarding `C[n+]1ccc(/C=C/c2c[nH]c3ccccc23)cc1.[I-]` [F16], the “phosphotyrosine content of Neu, phosphorylated PKB/Akt, and phosphorylated MAP kinase” value in [1] was “decreased”. The “average total body weight loss” value in data set [2] came to 3.3%. Also, the F16 response entry in the data set with NF980, in the data set on NF324-2A, with T47D, with MDA-MB-468, in the data set with SKBR-3 and in the data set on MDA-MB-436 was “+” throughout. Besides, the F16 response result with MDA-MB-453, with MCF-7 and with ZR75 was “+” throughout. Further, the “swelling of purified mitochondria” value in data set [3] is reported as “swelling of purified mitochondria in a dose-dependent fashion”. In the data set on mice (50 mg/kg, a few hours after the injection), the deaths after injection result was “one mouse out of 5”. For the same compound, in the data set with mice (intraperitoneal injection, mice), the “maximum tolerable dose (MTD)” value is roughly 50 mg/kg.
